From patent publication US20170143733A1, “COMPOUNDS AND METHODS FOR SKIN REPAIR” (Allergan, Inc., priority 2012, published 2017) come the findings set out here.

Assay [1] deals with T1, EP2 (Homo sapiens, UniProt P43116). In words: EP2 cAMP functional assay. Type of assay: cell-based.
The target in assay [2] is T1, EP2. As to the kind of experiment: EP2 binding assay (Ki).
In assay [3] the target is T2, EP4 (Homo sapiens, UniProt P35408). As to the kind of experiment: EP4 cAMP functional assay. Type of assay: cell-based.
T2 sequence (P35408 whole entry): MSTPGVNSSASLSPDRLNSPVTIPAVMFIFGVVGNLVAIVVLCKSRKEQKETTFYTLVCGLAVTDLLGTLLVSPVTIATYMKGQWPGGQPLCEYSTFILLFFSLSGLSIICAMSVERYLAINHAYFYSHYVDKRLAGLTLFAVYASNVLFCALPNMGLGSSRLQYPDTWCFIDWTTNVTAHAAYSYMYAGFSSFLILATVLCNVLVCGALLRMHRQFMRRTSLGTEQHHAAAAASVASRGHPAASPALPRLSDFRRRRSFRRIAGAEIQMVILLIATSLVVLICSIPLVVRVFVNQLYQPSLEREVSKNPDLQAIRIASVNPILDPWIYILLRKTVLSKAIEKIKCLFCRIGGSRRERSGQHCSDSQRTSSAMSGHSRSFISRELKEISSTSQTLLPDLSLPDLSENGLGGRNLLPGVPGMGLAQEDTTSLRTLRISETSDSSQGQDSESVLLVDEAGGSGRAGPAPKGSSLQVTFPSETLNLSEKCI
Assay [4] has as its target T2, EP4. As to the kind of experiment: EP4 binding assay (Ki).
The subject of a further assay is incisional wounds. In words: Incisional skin wound model and assessment. It is filed as in vivo, Sprague-Dawley rats. Conditions: rats, Day 7, topical 0.004% twice daily for 5 days, drug-treated, scale of 0 to 6, higher = severer scar. From the text:
Sprague-Dawley rats at 180-200 gram were anesthetized with isoflourane. After shaving, 2-cm long incisions were made on the left and right side of the back, reaching the deep fascia on the back skin of rats under sterile conditions. Incisional wounds were immediately closed with 4.0 sutures, and then topically treated with a vehicle or test drugs at 0.004% twice daily for 5 days. The vehicle used here contains ethanol 30%, propylene glycol 12%, dipropylene glycol 5%, benzyl alcohol 5%, glycerol 3% and normal saline 45%. Wounds were photographed on day 7. All photos were coded and scored by lay people. Evaluation of wound sites was based on scar width, palpability (elevation) of wound areas, and general progress in healing, using a scale of 0 to 6; the severer a scar, the higher the score. Each scar was divided into 4 regions, separated by suture sites; each quarter was scored independently; the mean of the 4 part scores was recorded as the overall scar score of each incision site.

T1 sequence (P43116 whole entry): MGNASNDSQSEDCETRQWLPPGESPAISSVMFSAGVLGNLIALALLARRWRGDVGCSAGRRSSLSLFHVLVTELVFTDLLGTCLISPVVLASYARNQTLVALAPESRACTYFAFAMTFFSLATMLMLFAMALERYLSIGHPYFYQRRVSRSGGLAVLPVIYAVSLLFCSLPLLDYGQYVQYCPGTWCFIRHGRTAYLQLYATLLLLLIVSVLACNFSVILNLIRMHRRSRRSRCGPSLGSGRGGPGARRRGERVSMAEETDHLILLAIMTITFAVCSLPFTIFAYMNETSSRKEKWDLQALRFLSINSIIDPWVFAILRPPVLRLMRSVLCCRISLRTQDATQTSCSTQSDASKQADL

As to `O=C(O)CCCCCC[C@H]1C(=S)CCC[C@@H]1CCC(O)Cc1ccccc1` (stereo partly drawn) [Compound 1], the EC50 (in general, the midpoint of the concentration-response curve) is more than 10000 nM on EP2 [1] and 0.9 nM on EP4 [3]. The IC50 (usually the midpoint of a concentration-inhibition curve) is more than 10000 nM at EP2 [2] and 81 nM at EP4 [4].
`CC1(C)C(=O)[C@H](C/C=C\CCCC(=O)O)[C@@H](/C=C/[C@H](O)CCc2sc3ccccc3c2Cl)[C@@H]1O` [Compound 2]: the EC50 at EP2 [1] is more than 10000 nM; at EP4 [3], 0.3 nM. Besides, the IC50 on EP4 [4] turned out to be 7 nM. Also, in the assay with incisional wounds, the “Scar Scores” value stood at 0.60 ± 0.1.
With `CCCCC[C@H](O)c1ccc(N2C(=O)CC[C@@H]2CCCc2ccc(C(=O)O)s2)cc1` [Compound 3], the IC50 on EP2 [2] was 21 nM. At EP4 [3], this compound gave an EC50 of more than 10000 nM.
The compound `O=C(O)c1ccc(CCCN2C(=O)CC[C@@H]2CC[C@@H](O)Cc2cccc(C(F)(F)F)c2)s1` [Compound 4] showed an EC50 on EP2 [1] of 71 nM. On EP2 [2], this compound returned an IC50 of 4650 nM. Besides, in the assay with incisional wounds, the “Scar Scores” value is listed as 0.76 ± 0.07.
Consider `O=C(O)c1ccc(CC2Sc3c(Cl)cccc3N(Cc3ccccc3C(F)(F)F)C2=O)cc1` (stereo not drawn) [Compound 5], for which the EC50 on EP2 [1] is 1.9 nM; on EP4 [3] it was 4 nM. The IC50 turned out to be 1 nM at EP2 [2] and 0.3 nM on EP4 [4]. Moreover, the “Scar Scores” value with incisional wounds came to 0.56 ± 0.07.
